In patent US9029391B2 (priority 2011, dated 2015):

The molecules below were run on HIV (assay: MT4 Assay (anti-HIV activity)). Details: Human immunodeficiency virus 1, 96 h, read-out: HIV MT4 Assay IC50, HTLV-1 transformed cell line MT-4, cell titer glo, 10 point dose response curve.
Assay type: cell-based
Summary of the method: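 MT-4 cells (HTLV-1 transformed) were used for antiviral activity and cytotoxicity, run in parallel, with luminescence read by CellTiter-Glo 96 hours later. Percent inhibition was expressed against the no-compound control. IC50s came from 10-point curves of 3-4-fold serial dilutions spanning >1000-fold.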

SMILES | IC50 [µM]
Cc1ccc(-c2c(C(OC(C)(C)C)C(=O)O)n(C)c(=O)c3c(F)cccc23)cc1C (stereo not shown) [Example 59, 2-(tert-butoxy)-2-[4-(3,4-dimethylphenyl)-8-fluoro-2-methyl-1-oxo-1,2-dihydroisoquinolin-3-yl]acetic acid] | 2.18
Cc1ccc2c(-c3ccc(C)c(C)c3)c(C(OC(C)(C)C)C(=O)O)n(C)c(=O)c2c1 (stereo not shown) [Example 60, 2-(tert-butoxy)-2-[4-(3,4-dimethylphenyl)-2,7-dimethyl-1-oxo-1,2-dihydroisoquinolin-3-yl]acetic acid] | 1.29
Cn1c(C(OC(C)(C)C)C(=O)O)c(-c2ccc3c(c2)OCCCO3)c2ccccc2c1=O (stereo not shown) [Example 61, 2-(tert-butoxy)-2-[4-(3,4-dihydro-2H-1,5-benzodioxepin-7-yl)-2-methyl-1-oxo-1,2-dihydroisoquinolin-3-yl]acetic acid] | 8.7
Cn1c(C(OC(C)(C)C)C(=O)O)c(-c2ccc3ncccc3c2)c2ccccc2c1=O (stereo not shown) [Example 62, 2-(tert-butoxy)-2-[2-methyl-1-oxo-4-(quinolin-6-yl)-1,2-dihydroisoquinolin-3-yl]acetic acid] | 11.1
Cn1c(C(OC(C)(C)C)C(=O)O)c(-c2ccc3c(c2)CCO3)c2ccccc2c1=O (stereo not shown) [Example 63, 2-(tert-butoxy)-2-[4-(2,3-dihydro-1-benzofuran-5-yl)-2-methyl-1-oxo-1,2-dihydroisoquinolin-3-yl]acetic acid] | 1.69
Cn1c(C(OC(C)(C)C)C(=O)O)c(-c2ccc3ccccc3c2)c2ccccc2c1=O (stereo not shown) [Example 64, 2-(tert-butoxy)-2-[2-methyl-4-(naphthalen-2-yl)-1-oxo-1,2-dihydroisoquinolin-3-yl]acetic acid] | 8.7
CCn1c(C(OC(C)(C)C)C(=O)O)c(-c2ccc3c(c2)CCCO3)c2ccccc2c1=O (stereo not shown) [Example 65, 2-(tert-butoxy)-2-[4-(3,4-dihydro-2H-1-benzopyran-6-yl)-2-ethyl-1-oxo-1,2-dihydroisoquinolin-3-yl]acetic acid] | 1.46
Cc1cc(-c2c(C(OC(C)(C)C)C(=O)O)n(C)c(=O)c3ccccc23)cc(C)c1Cl (stereo not shown) [Example 66, 2-(tert-butoxy)-2-[4-(4-chloro-3,5-dimethylphenyl)-2-methyl-1-oxo-1,2-dihydroisoquinolin-3-yl]acetic acid] | 3.6
Cc1ccc2c(-c3ccc4c(c3C)CCCO4)c(C(OC(C)(C)C)C(=O)O)n(C)c(=O)c2c1 (stereo not shown) [Example 67, 2-(tert-butoxy)-2-[2,7-dimethyl-4-(5-methyl-3,4-dihydro-2H-1-benzopyran-6-yl)-1-oxo-1,2-dihydroisoquinolin-3-yl]acetic acid] | 0.12
Cn1c(C(OC(C)(C)C)C(=O)O)c(-c2ccc3c(c2)CCCO3)c2ccc(Cl)cc2c1=O (stereo not shown) [Example 68, 2-(tert-butoxy)-2-[7-chloro-4-(3,4-dihydro-2H-1-benzopyran-6-yl)-2-methyl-1-oxo-1,2-dihydroisoquinolin-3-yl]acetic acid] | 2.45
Cc1c(-c2c(C(OC(C)(C)C)C(=O)O)n(C)c(=O)c3ccc(F)cc23)ccc2c1CCCO2 (stereo not shown) [Example 69, 2-(tert-butoxy)-2-[6-fluoro-2-methyl-4-(5-methyl-3,4-dihydro-2H-1-benzopyran-6-yl)-1-oxo-1,2-dihydroisoquinolin-3-yl]acetic acid] | 0.57
Cc1c(-c2c(C(OC(C)(C)C)C(=O)O)n(C)c(=O)c3ccccc23)cc(Cl)c2c1CCCO2 (stereo not shown) [Example 70, 2-(tert-butoxy)-2-[4-(8-chloro-5-methyl-3,4-dihydro-2H-1-benzopyran-6-yl)-2-methyl-1-oxo-1,2-dihydroisoquinolin-3-yl]acetic acid] | 1.23
Cc1ccccc1-c1c(C(OC(C)(C)C)C(=O)O)n(C)c(=O)c2ccccc12 (stereo not shown) [Example 71, 2-(tert-butoxy)-2-[2-methyl-4-(2-methylphenyl)-1-oxo-1,2-dihydroisoquinolin-3-yl]acetic acid] | 1.45
COc1ccc2c(-c3ccc4c(c3)CCCO4)c(C(OC(C)(C)C)C(=O)O)n(C)c(=O)c2c1 (stereo not shown) [Example 72, 2-(tert-butoxy)-2-[4-(3,4-dihydro-2H-1-benzopyran-6-yl)-7-methoxy-2-methyl-1-oxo-1,2-dihydroisoquinolin-3-yl]acetic acid] | 0.4
Cc1c(-c2c(C(OC(C)(C)C)C(=O)O)n(C)c(=O)c3cc(F)ccc23)ccc2c1CCCO2 (stereo not shown) [Example 75, 2-(tert-butoxy)-2-[7-fluoro-2-methyl-4-(5-methyl-3,4-dihydro-2H-1-benzopyran-6-yl)-1-oxo-1,2-dihydroisoquinolin-3-yl]acetic acid] | 0.39
COc1ccc2c(-c3ccc4c(c3C)CCCO4)c(C(OC(C)(C)C)C(=O)O)n(C)c(=O)c2c1 (stereo not shown) [Example 76, 2-(tert-butoxy)-2-[7-methoxy-2-methyl-4-(5-methyl-3,4-dihydro-2H-1-benzopyran-6-yl)-1-oxo-1,2-dihydroisoquinolin-3-yl]acetic acid] | 0.12

SMILES | IC50 [µM]
CCn1c(C(OC(C)(C)C)C(=O)O)c(-c2ccc3c(c2C)CCCO3)c2ccccc2c1=O (stereo not shown) [Example 77, 2-(tert-butoxy)-2-[2-ethyl-4-(5-methyl-3,4-dihydro-2H-1-benzopyran-6-yl)-1-oxo-1,2-dihydroisoquinolin-3-yl]acetic acid] | 0.49
Cn1c(C(OC(C)(C)C)C(=O)O)c(-c2ccc3c(c2)CCC(C)(C)O3)c2ccccc2c1=O (stereo not shown) [Example 78, 2-(tert-butoxy)-2-[4-(2,2-dimethyl-3,4-dihydro-2H-1-benzopyran-6-yl)-2-methyl-1-oxo-1,2-dihydroisoquinolin-3-yl]acetic acid] | 41.6
Cc1c(-c2c(C(OC(C)(C)C)C(=O)O)n(C)c(=O)c3cc(Cl)ccc23)ccc2c1CCCO2 (stereo not shown) [Example 79, 2-(tert-butoxy)-2-[7-chloro-2-methyl-4-(5-methyl-3,4-dihydro-2H-1-benzopyran-6-yl)-1-oxo-1,2-dihydroisoquinolin-3-yl]acetic acid] | 0.2
CC(=O)N1CCc2ccc(-c3c(C(OC(C)(C)C)C(=O)O)n(C)c(=O)c4ccccc34)cc2C1 (stereo not shown) [Example 80, 2-[4-(2-acetyl-1,2,3,4-tetrahydroisoquinolin-7-yl)-2-methyl-1-oxo-1,2-dihydroisoquinolin-3-yl]-2-(tert-butoxy)acetic acid] | 50
COCCOc1ccc2c(-c3ccc4c(c3C)CCCO4)c(C(OC(C)(C)C)C(=O)O)n(C)c(=O)c2c1 (stereo not shown) [Example 81, 2-(tert-butoxy)-2-[7-(2-methoxyethoxy)-2-methyl-4-(5-methyl-3,4-dihydro-2H-1-benzopyran-6-yl)-1-oxo-1,2-dihydroisoquinolin-3-yl]acetic acid] | 0.44
Cn1c(C(OC(C)(C)C)C(=O)O)c(-c2ccc3c(c2)NCCO3)c2ccccc2c1=O (stereo not shown) [Example 82, 2-(tert-butoxy)-2-[4-(3,4-dihydro-2H-1,4-benzoxazin-6-yl)-2-methyl-1-oxo-1,2-dihydroisoquinolin-3-yl]acetic acid] | 7.4
Cc1c(-c2c(C(OC(C)(C)C)C(=O)O)n(C)c(=O)c3c(F)cccc23)ccc2c1CCCO2 (stereo not shown) [Example 83, 2-(tert-butoxy)-2-[8-fluoro-2-methyl-4-(5-methyl-3,4-dihydro-2H-1-benzopyran-6-yl)-1-oxo-1,2-dihydroisoquinolin-3-yl]acetic acid] | 0.5
Cc1c(-c2c(C(OC(C)(C)C)C(=O)O)n(C)c(=O)c3cc(O)ccc23)ccc2c1CCCO2 (stereo not shown) [Example 84, 2-(tert-butoxy)-2-[7-hydroxy-2-methyl-4-(5-methyl-3,4-dihydro-2H-1-benzopyran-6-yl)-1-oxo-1,2-dihydroisoquinolin-3-yl]acetic acid] | 26
Cc1c(-c2c(C(OC(C)(C)C)C(=O)O)n(C)c(=O)c3cc(OCCN(C)C)ccc23)ccc2c1CCCO2 (stereo not shown) [Example 85, 2-(tert-butoxy)-2-{7-[2-(dimethylamino)ethoxy]-2-methyl-4-(5-methyl-3,4-dihydro-2H-1-benzopyran-6-yl)-1-oxo-1,2-dihydroisoquinolin-3-yl}acetic acid] | 7.63
Cn1c(C(OC(C)(C)C)C(=O)O)c(-c2ccc3c(c2Cl)NCCO3)c2ccccc2c1=O (stereo not shown) [Example 86, 2-(tert-butoxy)-2-[4-(5-chloro-3,4-dihydro-2H-1,4-benzoxazin-6-yl)-2-methyl-1-oxo-1,2-dihydroisoquinolin-3-yl]acetic acid] | 4.38
Cc1ccc(-c2c(C(OC(C)(C)C)C(=O)O)n(C)c(=O)c3cc(F)ccc23)cc1C (stereo not shown) [Example 87, 2-(tert-butoxy)-2-[4-(3,4-dimethylphenyl)-7-fluoro-2-methyl-1-oxo-1,2-dihydroisoquinolin-3-yl]acetic acid] | 0.74
Cc1c(-c2c(C(OC(C)(C)C)C(=O)O)n(C)c(=O)c3cc(OCc4ccccc4)ccc23)ccc2c1CCCO2 (stereo not shown) [Example 88, 2-[7-(benzyloxy)-2-methyl-4-(5-methyl-3,4-dihydro-2H-1-benzopyran-6-yl)-1-oxo-1,2-dihydroisoquinolin-3-yl]-2-(tert-butoxy)acetic acid] | 0.11
Cc1c(-c2c(C(OC(C)(C)C)C(=O)O)n(C)c(=O)c3cc(OCCF)ccc23)ccc2c1CCCO2 (stereo not shown) [Example 89, 2-(tert-butoxy)-2-[7-(2-fluoroethoxy)-2-methyl-4-(5-methyl-3,4-dihydro-2H-1-benzopyran-6-yl)-1-oxo-1,2-dihydroisoquinolin-3-yl]acetic acid] | 0.4
Cc1c(-c2c(C(OC(C)(C)C)C(=O)O)n(C)c(=O)c3c(F)cccc23)cc(F)c2c1CCCO2 (stereo not shown) [Example 90, 2-(tert-butoxy)-2-[8-fluoro-4-(8-fluoro-5-methyl-3,4-dihydro-2H-1-benzopyran-6-yl)-2-methyl-1-oxo-1,2-dihydroisoquinolin-3-yl]acetic acid] | 0.51
Cc1c(-c2c(C(OC(C)(C)C)C(=O)O)n(C)c(=O)c3ccc(F)cc23)cc(F)c2c1CCCO2 (stereo not shown) [Example 91, 2-(tert-butoxy)-2-[6-fluoro-4-(8-fluoro-5-methyl-3,4-dihydro-2H-1-benzopyran-6-yl)-2-methyl-1-oxo-1,2-dihydroisoquinolin-3-yl]acetic acid] | 0.44
